From patent US10550079B2, “Artificial self-sufficient cytochrome P450s” (University of Florida Research Foundation, Incorporated, priority 2015, dated 2020) come the findings set out here.

Each structure is given as a SMILES string.

The target in one assay is T1, TxtE-BM3R (UniProt C9ZDC6+P14779).
T1 construct: P450BM3 (CYP102A1) reductase domain BM3R with its Domcut-predicted native linker, from B. megaterium ATCC 14581 (GenBank J04832.1); made in house; host or cells: E. coli BL21 (DE3)-GOLD
Kind of assay: Nitration of fluorinated tryptophan substrates by TxtE-BM3R. It counts as biochemical, S. scabies 87.22 / B. megaterium ATCC 14581. The method, then: (§1) P450 reactions contained 0.5 mM substrate, 1 mM NADP^+, 1 mM glucose, ˜10 units/mL self-prepared glucose dehydrogenase crude extract, 1 mM NOC-5 in 100 μL of Tris-HCl buffer (100 mM, pH 8.0). As the positive control, TxtE reaction was also re-constructed in the above mixture further supplemented with 0.43 μM spinach Fer and 0.33 μM Frd. The reactions were initiated by adding 1.5 μM P450s, and incubated at 20° C., 300 rpm on a thermostat (Eppendorf) for 2 hours. Methanol (200 μl) was then added to stop the reactions. After centrifugation, 10 μl solutions were analyzed by HPLC. […] The flow rate was set as 1.5 ml/min, and the products were detected at 211 nm with a PDA detector. […]
(§2) P450 reactions contained 0.5 mM substrate, 1 mM NADP^+, 1 mM glucose, ˜10 units/mL self-prepared glucose dehydrogenase crude extract, 1 mM NOC-5 [3-(aminopropyl)-1-hydroxy-3-isopropyl-2-oxo-1-triazene] in 100 μL of Tris-HCl buffer (100 mM, pH 8.0). […] After centrifugation, 10 μl solutions were analyzed by HPLC. […] The 4-NO2-l-tryptophan was synthesized in a large-scale enzymatic reaction to establish a standard curve for product quantification. […] NADPH consumption in enzyme reactions was measured at 340 nm (ε=6.22 mM^−1·cm^−1) with a Shimadzu UV2700 dual beam UV-Vis spectrophotometer. […] The quantity of nitrated product was determined by HPLC analysis as described above. […]

The next assay deals with TxtE (Streptomyces scabiei, UniProt C9ZDC6). Kind of assay: Nitration of fluorinated tryptophan substrates by TxtE. It counts as biochemical, S. scabies 87.22. Also on record: inferred from the pET28 vector and Ni-NTA purification) (C); made in house; host or cells: E. coli BL21 (DE3)-GOLD. The method, then: as §1, §2

As for `N[C@@H](Cc1c[nH]c2cccc(F)c12)C(=O)O` [4-F-L-tryptophan], the “overall conversion rate relative to L-tryptophan” value at TxtE-BM3R and at TxtE was “about 20%” each time.
